Columns and labels:
[1] = microcentrifuge dissolution test (in vitro evaluation of concentration enhancement); type: physicochemical; settings: for AUC: area under concentration-versus-time curve in PBS pH 6.5, 37° C.; for Concentration: dissolved torcetrapib in supernatant, 1000 μg/mL if all drug dissolved
Experimental: The solid composition of Example 1 was evaluated in vitro using a microcentrifuge dissolution test as follows. For this test, a sufficient amount of material was added to a microcentrifuge test tube so that the concentration of torcetrapib would have been 1000 μg/mL, if all of the drug had dissolved. The test was run in duplicate. The tubes were placed in a 37° C. temperature-controlled chamber, and 1.8 mL PBS at pH 6.5 and 290 mOsm/kg was added to each respective tube. The samples were quickly mixed using a vortex mixer for about 60 seconds. The samples were centrifuged at 13,000 G at 37° C. for 1 minute. The resulting supernatant solution was then sampled and diluted 1:6 (by volume) with methanol and then analyzed by HPLC. The contents of each tube were mixed on the vortex mixer and allowed to stand undisturbed at 37° C. until the next sample was taken. Samples were collected at 4, 10, 20, 40, 90, and 1200 minutes. Control 1 (C1) consisted of crystalline torcetrapib alone, and a sufficient amount of material was added so that the concentration of drug would have been 1000 μg/mL, if all of the drug had dissolved. The concentrations of drug obtained in these samples were used to determine the maximum drug concentration (“MDC90”) and the area under the concentration-versus-time curve (“AUC90”) during the initial ninety minutes.

[2] = aqueous solubility; type: physicochemical; settings: aqueous medium; aqueous solubility determined at about 22° C. unless otherwise specified
Experimental: A second property of hydrophobic drugs is that they have low aqueous solubility. […] Extremely low aqueous solubility often leads to poor or slow absorption of the drug from the fluid of the gastrointestinal tract, when the drug is dosed orally in a conventional manner. For extremely low solubility drugs, absorption generally becomes progressively more difficult as the dose (mass of drug given orally) increases. Thus, a third property of hydrophobic drugs is a very high dose (in mg) to solubility (In mg/ml) ratio (ml). By “very high dose-to-solubility ratio” is meant that the dose-to-solubility ratio may have a value of at least 1000 ml, at least 5,000 ml, or even at least 10,000 ml. The dose-to-solubility ratio may be determined by dividing the dose (in mg) by the aqueous solubility (in mg/ml).
CETP inhibitors, in particular torcetrapib, and methods for preparing such compounds are disclosed in detail in U.S. Pat. Nos. 6,197,786 and 6,313,142, in PCT Application Nos. WO 01/40190A1, WO 02/088085A2, and WO 02/088069A2, the disclosures of which are herein incorporated by reference. Torcetrapib has an unusually low solubility in aqueous environments such as the lumenal fluid of the human GI tract. The aqueous solubility of torcetrapib is less than about 0.04 μg/ml. […]

[3] = during the initial ninety minutes, PBS pH 6.5, 37° C.

`CCOC(=O)N1c2ccc(C(F)(F)F)cc2[C@@H](N(Cc2cc(C(F)(F)F)cc(C(F)(F)F)c2)C(=O)OC)C[C@H]1CC` [torcetrapib, [2R,4S]-4-[(3,5-bis-trifluoromethyl-benzyl)-methoxycarbonyl-amino]-2-ethyl-6-trifluoromethyl-3,4-dihydro-2H-quinoline-1-carboxylic acid ethyl ester] gave an AUC ([1]; up to time 0 min) of 0 µg·min/mL, an AUC ([1]; up to time 4 min) of under 2 µg·min/mL and an AUC ([1]; up to time 10 min) of under 8 µg·min/mL. The AUC ([1]; up to time 20 min) was under 18 µg·min/mL, the AUC ([1]; up to time 40 min) was under 38 µg·min/mL and the AUC ([1]; up to time 90 min) was under 88 µg·min/mL. The AUC ([1]; up to time 1200 min) was <1,200 min*μg/mL, the C1200 ([1]; concentration at 1200 minutes, PBS pH 6.5, 37° C.) was under 1 µg/mL and the Concentration ([1]; PBS pH 6.5, 37° C., time 0 min) was 0 µg/mL. For the same compound, the Concentration ([1]; PBS pH 6.5, 37° C., time 4 min) was under 1 µg/mL, the Concentration ([1]; PBS pH 6.5, 37° C., time 10 min) was under 1 µg/mL and the Concentration ([1]; PBS pH 6.5, 37° C., time 20 min) was under 1 µg/mL. The Concentration ([1]; PBS pH 6.5, 37° C., time 40 min) was under 1 µg/mL, the Concentration ([1]; PBS pH 6.5, 37° C., time 90 min) was under 1 µg/mL and the Concentration ([1]; PBS pH 6.5, 37° C., time 1200 min) was under 1 µg/mL. For the same compound, the “AUC90 (area under the concentration-versus-time curve)” value [1, 3] was under 88 µg·min/mL, the “MDC90 (maximum drug concentration)” value [1, 3] was under 1 µg/mL and the solubility [2] was under 0.04 µg/mL.
